Patent US10807974B2, “Methylamine derivatives as lysysl oxidase inhibitors for the treatment of cancer” (The Institute of Cancer Research: Royal Cancer Hospital, priority 2016, dated 2020)
Where a name gives a salt, the structure may show the parent alone. Read-outs that look alike come from different tables or passages of the source.

Columns and labels:
LOXL2 = LOXL2 (Homo sapiens (Human), UniProt Q9Y4K0); test: LOXL2 enzyme activity assay (ROS-Glo; pre-incubation 20 min Method (a), 60 min Method (b), 20 h Method (c)); assay type: biochemical
MAO-B = MAO-B (Homo sapiens (Human), UniProt P27338); test: Monoamine oxidase B (MAO-B) selectivity assay; assay type: biochemical
in vivo [1] = conditions: female, mouse, po, 50 mg/kg
MAO-A = MAO-A (Homo sapiens (Human), UniProt P21397); test: Monoamine oxidase A (MAO-A) selectivity assay; assay type: biochemical
[2] = tested on: MATN2 in MDA-MB-231 cells; test: MATN2 level in treated cells; assay type: cell-based, human
Protocol: All samples were fixed in 4% paraformaldehyde (EMS). Fixed cells were then subjected to incubation with primary antibodies followed by fluorescence secondary antibodies (Life Technologies) to visualise extracellular proteins. Anti-human MATN2 (R&D) antibody was used at 1:100 dilutions. DAPI (Sigma) was used to stain DNA.
Proteins were extracted from cultured cells using cell lysis buffer (Cell Signalling Technology) with the addition of protease and phosphatase inhibitor cocktails (Pierce). Protein concentrations were measured using Pierce 660 nm protein assay reagent and SpectaMax M5 plate reader. […] Separated proteins were transferred to nitrocellulose membranes using a Trans-Blot turbo transfer system (Bio-Rad). Following blocking with Odyssey blocking buffer (Li-COR), membranes were incubated with two primary antibodies of different species at 4° C. over night. Corresponding fluorescence secondary antibodies (Li-COR) of different excitation and emission wavelengths were used to visualize the protein of interest on an Odyssey CLx infrared imaging system (Li-COR). Quantification of band fluorescent intensity was achieved using Li-COR ImageStudio. The following primary antibodies were used, anti-LOX (Sigma), anti-human MATN2 (R&D), anti-EGFR and anti-pY1068EGFR (Cell Signalling Technology), and anti-GAPDH (Millipore).

[3] = tested on: diet-induced obesity in rats; conditions: diet-induced obesity in rats (Miana, Galan et al. 2015); cited from earlier work
schistosomiasis = conditions: cited from earlier work
[4] = tested on: experimental pulmonary hypertension; conditions: Nave, Mizikova et al. 2014; cited from earlier work
[5] = tested on: human breast cancer cells; conditions: cited from earlier work
[6] = tested on: angiotensin II-induced cardiac hypertrophy; conditions: in vivo (Ohmura, Yasukawa et al. 2012); cited from earlier work
[7] = tested on: TGF beta signalling (pSMAD2); test: TGF beta signalling (pSMAD2); assay type: cell-based; conditions: FIG. 15b
human cancer cell lines = conditions: several human cancer cell lines; cited from earlier work
cervical cancer cells = cervical cancer cells (Yang et al. 2013); cited from earlier work
[8] = tested on: human breast cancer cells; conditions: mice treated with conditioned medium in the presence of BAPN; cited from earlier work
Staphylococcus Aureus = conditions: Beerlage, Greb et al. 2013; cited from earlier work
adipose tissue = conditions: Heiberg, Khan et al. 2009; cited from earlier work
myocardial fibrosis = conditions: mouse model (Rosin, Sopel et al. 2015); cited from earlier work
3D cell culture = 3D cell culture (not in 2D) (Schuetze, Roehrig et al. 2015); cited from earlier work
in vivo [9] = conditions: rat, po, 20 mg/kg
[10] = read-out: LOXL2 IC50 b) 1 hr, pre-incubation 1 hr, Method (b)

Sequence of LOXL2 (Q9Y4K0 26-774, species assumed): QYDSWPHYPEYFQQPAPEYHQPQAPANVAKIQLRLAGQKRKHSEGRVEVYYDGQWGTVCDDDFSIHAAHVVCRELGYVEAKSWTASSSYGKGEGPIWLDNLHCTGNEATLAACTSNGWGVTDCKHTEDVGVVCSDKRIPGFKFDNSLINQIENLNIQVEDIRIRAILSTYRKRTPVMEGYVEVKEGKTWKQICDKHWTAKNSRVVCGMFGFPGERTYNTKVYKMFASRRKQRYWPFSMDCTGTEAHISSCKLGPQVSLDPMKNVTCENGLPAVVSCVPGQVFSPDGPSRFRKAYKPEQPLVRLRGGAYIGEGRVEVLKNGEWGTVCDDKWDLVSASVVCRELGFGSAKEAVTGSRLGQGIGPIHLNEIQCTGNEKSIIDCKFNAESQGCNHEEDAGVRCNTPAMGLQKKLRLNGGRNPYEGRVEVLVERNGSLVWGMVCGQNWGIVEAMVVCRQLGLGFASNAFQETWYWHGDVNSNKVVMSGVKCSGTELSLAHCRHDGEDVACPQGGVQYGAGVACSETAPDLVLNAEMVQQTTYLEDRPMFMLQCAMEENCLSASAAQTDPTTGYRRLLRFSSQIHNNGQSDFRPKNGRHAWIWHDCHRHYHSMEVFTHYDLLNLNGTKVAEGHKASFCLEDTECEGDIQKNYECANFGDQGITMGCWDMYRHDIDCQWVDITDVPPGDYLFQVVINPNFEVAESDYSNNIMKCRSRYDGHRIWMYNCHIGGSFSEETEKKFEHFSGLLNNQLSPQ
Sequence of MAO-A (P21397 whole entry): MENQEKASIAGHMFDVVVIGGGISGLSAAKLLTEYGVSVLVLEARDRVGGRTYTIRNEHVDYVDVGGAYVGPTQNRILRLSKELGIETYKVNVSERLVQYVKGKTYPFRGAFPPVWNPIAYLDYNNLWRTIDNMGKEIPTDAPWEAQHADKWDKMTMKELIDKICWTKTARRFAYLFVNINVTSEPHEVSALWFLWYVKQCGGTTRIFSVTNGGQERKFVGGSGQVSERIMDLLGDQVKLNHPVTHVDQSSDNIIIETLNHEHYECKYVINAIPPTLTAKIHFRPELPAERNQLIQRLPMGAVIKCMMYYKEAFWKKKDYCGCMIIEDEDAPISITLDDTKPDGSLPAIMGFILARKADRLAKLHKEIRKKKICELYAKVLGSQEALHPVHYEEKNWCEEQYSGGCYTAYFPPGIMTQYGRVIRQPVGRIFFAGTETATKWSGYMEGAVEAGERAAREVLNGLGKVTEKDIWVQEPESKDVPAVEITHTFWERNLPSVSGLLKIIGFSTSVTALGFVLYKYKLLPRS
Sequence of MAO-B (P27338 whole entry): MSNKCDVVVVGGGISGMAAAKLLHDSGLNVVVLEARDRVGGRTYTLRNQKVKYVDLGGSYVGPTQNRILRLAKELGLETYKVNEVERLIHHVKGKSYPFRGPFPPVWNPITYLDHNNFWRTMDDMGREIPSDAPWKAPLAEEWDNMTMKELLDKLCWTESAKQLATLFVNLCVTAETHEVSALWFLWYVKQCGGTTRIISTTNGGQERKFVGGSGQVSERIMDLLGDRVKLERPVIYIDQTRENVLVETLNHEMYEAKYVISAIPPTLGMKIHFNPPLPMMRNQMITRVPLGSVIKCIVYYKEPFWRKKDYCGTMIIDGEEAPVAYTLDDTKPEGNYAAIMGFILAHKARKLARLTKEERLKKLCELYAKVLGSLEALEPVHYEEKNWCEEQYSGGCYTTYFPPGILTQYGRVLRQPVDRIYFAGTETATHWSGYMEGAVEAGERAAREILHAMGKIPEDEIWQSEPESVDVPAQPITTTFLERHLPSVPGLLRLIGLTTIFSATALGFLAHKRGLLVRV

NCc1ncc(S(=O)(=O)c2cc(C(=O)NCCO)cc(-c3ccccc3)c2)s1 [Example 152, 5-((2-(Aminomethyl)thiazol-5-yl)sulfonyl)-N-(2-hydroxyethyl)-[1,1′-biphenyl]-3-carboxamide Dihydrochloride]
IC50 (LOXL2; [10]): 560 nM

NCc1ncc(S(=O)(=O)c2cc3ccccc3c3ccccc23)s1 [Example 97, (5-(Phenanthren-9-ylsulfonyl)thiazol-2-yl)methanamine Hydrochloride]
IC50 (MAO-B): > 100000 nM

CN(C)C(=O)c1cc(-c2ccccc2)cc(S(=O)(=O)c2csc(CN)n2)c1 [Example 162, 5-((2-(Aminomethyl)thiazol-4-yl)sulfonyl)-N,N-dimethyl-[1,1′-biphenyl]-3-carboxamide Hydrochloride]
IC50 (LOXL2; [10]): 310 nM

Cn1cc(-c2cc(C(=O)O)cc(S(=O)(=O)c3cnc(CN)s3)c2)cn1 [Example 150, 3-(2-(Aminomethyl)thiazol-5-yl)sulfonyl)-5-(1-methyl-1H-pyrazol-4-yl)benzoic Acid Trihydrochloride]
AUC (in vivo [1]): 38 µM·h
Cmax (in vivo [1]): 10 µM
IC50 (MAO-B): > 100000 nM
IC50 (MAO-A): > 100000 nM

NCc1ccc(S(=O)(=O)c2cccc(S(=O)(=O)N3CCCC3c3ccccc3)c2)s1 (stereo not shown) [Example 124, (5-((3-((2-Phenylpyrrolidin-1-yl)sulfonyl)phenyl)sulfonyl)thiophen-2-yl)methanamine Hydrochloride]
IC50 (LOXL2; [10]): 120 nM

CN(C)C(=O)c1cc(-c2cnn(C)c2)cc(S(=O)(=O)c2csc(CN)n2)c1 [Example 164, 3-(2-(Aminomethyl)thiazol-4-yl)sulfonyl)-N,N-dimethyl-5-(1-methyl-1H-pyrazol-4-yl)benzamide Hydrochloride]
IC50 (LOXL2; [10]): 1200 nM

CS(=O)(=O)c1cc(-c2ccccc2)cc(S(=O)(=O)c2ccc(CN)s2)c1 [Example 68, (5-((5-(Methylsulfonyl)-[1,1′-biphenyl]-3-yl)sulfonyl)thiophen-2-yl)methanamine]
MATN2 level ([2]; FIG. 15b): MATN2 reduction

N#CCCN [BAPN, beta-aminopropionitrile]
body weight gain [3]: reduces body weight gain
metabolic profile [3]: improves the metabolic profile
size of the granulomas (schistosomiasis; Giboda, Zenka et al. 1992): reduces the size of the granulomas
egg load (schistosomiasis; in combination with antiparasitic drug PZQ compared to PZQ alone): reduces the egg load
symptoms of experimental pulmonary hypertension [4]: reduces the symptoms
metastatic tumour growth ([5]; breast cancer cells in mice (Erler et al, 2006)): can block metastatic tumour growth
invasion and metastasis ([5]; orthotopic human breast tumours or circulating human breast cancer cells, CRC, HCC, LKB1-mutant lung adenocarcinoma, anaplastic thyroid cancer, PDAC in mice): significantly reduced invasion and metastasis
cardiac hypertrophy [6]: inhibits angiotensin II-induced cardiac hypertrophy
TGF beta signalling as indicated by pSMAD2 [7]: increased TGF beta signalling
in vitro invasion activity (human cancer cell lines): blocks the in vitro invasion activity
hypoxia-induced invasion and migration mediated by the EMT (cervical cancer cells): can be inhibited
enhanced colonisation of the lung [8]: blocked
MATN2 level ([2]; FIG. 15b): MATN2 reduction
MATN2 level ([2]; MDA-MB-231 cells, at a much higher concentration, FIG. 13): same effect
inhibition of MAO-B (MAO-B): neither inhibits
abscesses morphology and collagenisation (Staphylococcus Aureus): influences resulting abscesses morphology and collagenisation
local adipose tissue inflammation (adipose tissue): reduces local adipose tissue inflammation
myocardial fibrosis (myocardial fibrosis): reduces myocardial fibrosis
inhibition of MAO-A (MAO-A): neither inhibits
sensitivity to doxorubicin and paclitaxel (3D cell culture): can be restored

NCc1ncc(S(=O)(=O)c2cc(C(=O)N3CCC(O)C3)cc(-c3ccccc3)c2)s1 (stereo not shown) [Example 149, (5-((2-(Aminomethyl)thiazol-5-yl)sulfonyl)-[1,1′-biphenyl]-3-yl)(3-hydroxypyrrolidin-1-yl)methanone Dihydrochloride]
IC50 (LOXL2; pre-incubation 1 hr, Method (b)): 260 nM

Cn1c(S(=O)(=O)c2ccc3ccccc3c2)cnc1CN [Example 123, (1-Methyl-5-(naphthalen-2-ylsulfonyl)-1H-imidazol-2-yl)methanamine Dihydrochloride]
IC50 (LOXL2; [10]): 19000 nM

Cc1ccc(-c2cc(S(=O)(=O)c3ccc(CN)s3)ccc2S(C)(=O)=O)cc1 [Example 82, (5-((4′-Methyl-6-(methylsulfonyl)-[1,1′-biphenyl]-3-yl)sulfonyl)thiophen-2-yl)methanamine Hydrochloride]
AUC (in vivo [1]): 12 µM·h
Cmax (in vivo [1]): 9.4 µM
IC50 (MAO-B): > 100000 nM

Cn1cc(-c2cc(F)cc(S(=O)(=O)c3cnc(CN)s3)c2)cn1 [Example 131, (5-(3-Fluoro-5-(1-methyl-1H-pyrazol-4-yl)phenyl)sulfonyl)thiazol-2-yl)methanamine Trihydrochloride]
IC50 (MAO-B): > 100000 nM
IC50 (MAO-A): > 100000 nM

CCNC(=O)c1cc(-c2cnn(C)c2)cc(S(=O)(=O)c2cnc(CN)s2)c1 [Example 154]
IC50 (LOXL2; [10]): 150 nM

COc1cc(-c2cn[nH]c2)cc(S(=O)(=O)c2cnc(CN)s2)c1 [Example 142, (5-((3-methoxy-5-(1H-pyrazol-4-yl)phenyl)sulfonyl)thiazol-2-yl)methanamine tri-trifluoroacetate]
IC50 (LOXL2; [10]): 410 nM

CN(C)C(=O)c1cc(-c2ccccc2)cc(S(=O)(=O)c2cnc(CN)s2)c1 [Example 125, 5-((2-(Aminomethyl)thiazol-5-yl)sulfonyl)-N,N-dimethyl-[1,1′-biphenyl]-3-carboxamide Dihydrochloride]
IC50 (MAO-B): > 100000 nM
IC50 (MAO-A): > 100000 nM

NCc1ncc(S(=O)(=O)c2cc(C(=O)O)cc(-c3ccccc3)c2)s1 [Example 126, 5-((2-(Aminomethyl)thiazol-5-yl)sulfonyl)-[1,1′-biphenyl]-3-carboxylic Acid Ditrifluoroacetate]
AUC (in vivo [1]): 413 µM·h
Cmax (in vivo [1]): 100 µM
IC50 (MAO-B): > 100000 nM
AUC (in vivo [9]): 106 µM·h
Cmax (in vivo [9]): 35 µM
IC50 (MAO-A): > 100000 nM

CCNC(=O)c1cc(-c2ccccc2)cc(S(=O)(=O)c2cnc(CN)s2)c1 [Example 151, 5-((2-(Aminomethyl)thiazol-5-yl)sulfonyl)-N-ethyl-[1,1′-biphenyl]-3-carboxamide Dihydrochloride]
IC50 (LOXL2; [10]): 77 nM

NCc1ncc([S+]([O-])c2ccccc2)s1 (stereo not shown) [Example 95, (5-(Phenylsulfinyl)thiazol-2-yl)methanamine Hydrochloride]
IC50 (LOXL2; read-out: LOXL2 IC50 c) 20 hr, pre-incubation 20 hr, Method (c)): 1000 nM

CS(=O)(=O)c1cc(S(=O)(=O)c2ccc(CN)s2)ccc1-c1ccccc1 [Example 129, (5-((2-(Methylsulfonyl)-[1,1′-biphenyl]-4-yl)sulfonyl)thiophen-2-yl)methanamine Hydrochloride]
IC50 (LOXL2; [10]): 480 nM

COCn1cc(-c2cc(OC)cc(S(=O)(=O)c3cnc(CN)s3)c2)cn1 [Example 141, (5-((3-Methoxy-5-(1-(methoxymethyl)-1H-pyrazol-4-yl)phenyl)sulfonyl)thiazol-2-yl)methanamine tri-trifluoroacetate]
IC50 (LOXL2; [10]): 72 nM

Cn1cc(-c2cc(C(=O)N3CC[C@@H](O)C3)cc(S(=O)(=O)c3cnc(CN)s3)c2)cn1 [Example 156, (R)-(3-(2-(Aminomethyl)thiazol-5-yl)sulfonyl)-5-(1-methyl-1H-pyrazol-4-yl)phenyl)(3-hydroxypyrrolidin-1-yl)methanone tri hydrochloride]
IC50 (LOXL2; [10]): 200 nM
